This note sets out measurements from the supplement of paper PMC11208160.

The nature of this series: recombinant UMI read abundance after kanamycin selection (control-corrected) (log10(CPM+1)); higher = more efficient recombination; extreme values may be limits of the assay; sequences stand for … in AGTGCAGAGAAAATCGGCCAGTTTTCTCTGCCTGCAGTCCGCATGCCGTGGGACCCCTTGGGTTCTAACCTGTTGCCTAGATTTATGCAGCGGACTGCCTTTCTCCCAAAGTGATAAACCGG…AGGTTGGTTTCACT; site = the 11-nt donor. The method, boiled down:
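Pooled Escherichia coli screen of donor and donor-binding-loop pairs for the IS621 bridge recombinase. Each pair sits with a 12-nt UMI on a plasmid carrying a promoterless kanamycin gene. The library was co-electroporated with a target plasmid encoding a fixed target and T7-inducible recombinase, then plated with IPTG (0.07 mM) plus kanamycin, or unselected, each in two replicates. Recombinant UMIs were PCR-amplified across the donor–target junction and sequenced. Counts became CPM, averaged over replicates, scaled by control-derived factors and reported as log10(CPM+1).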
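Note: IS621 bridge recombinase in Escherichia coli cells against a fixed T5 target plasmid.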

In the case of “ACTAGAACATGGACCGGTTTTCCCGGTAATCCGTATTTGAT (site ACTAGAACTGT)”, the “recombinant UMI read abundance (log10)” value worked out at 0.

Take “ACTAGAACATGGACCGGTTTTCCCGGTAATCCGTATTTGAT (site ACTAGAACTTT)”: the “recombinant UMI read abundance (log10)” value was found to be 0.0117.

Take “ACTAGATCATGGACCGGTTTTCCCGGTAATCCGTATTTGAG (site ACTAGAACTCT)”: the “recombinant UMI read abundance (log10)” value turned out to be 0.00628.

On to “ACTAGATCATGGACCGGTTTTCCCGGTAATCCGTATTTGAG (site ACTAGACCTCT)”, for which the “recombinant UMI read abundance (log10)” value stood at 0.0156.

Consider “ACTAGATCATGGACCGGTTTTCCCGGTAATCCGTATTTGAG (site ACTAGAGCTCT)”, for which the “recombinant UMI read abundance (log10)” value was 0.00838.

Consider “ACTAGATCATGGACCGGTTTTCCCGGTAATCCGTATTTGAG (site ACTAGATCTCT)”, for which the “recombinant UMI read abundance (log10)” value was found to be 2.52.

With “ACTAGTACATGGACCGGTTTTCCCGGTAATCCGTATTTGAG (site ACTAGAACTCT)”, the “recombinant UMI read abundance (log10)” value worked out at 0.692.

On to “ACTAGTACATGGACCGGTTTTCCCGGTAATCCGTATTTGAG (site ACTAGCACTCT)”, for which the “recombinant UMI read abundance (log10)” value turned out to be 0.0245.

Take “ACTAGTACATGGACCGGTTTTCCCGGTAATCCGTATTTGAG (site ACTAGGACTCT)”: the “recombinant UMI read abundance (log10)” value stood at 0.0174.

As to “ACTAGTACATGGACCGGTTTTCCCGGTAATCCGTATTTGAG (site ACTAGTACTCT)”, the “recombinant UMI read abundance (log10)” value was found to be 1.35.

As to “ACTAGTGCATGGACCGGTTTTCCCGGTAATCCGTATTTGGG (site ACTAGTGCTAC)”, the “recombinant UMI read abundance (log10)” value is 0.0186.

As for “ACTAGTGCATGGACCGGTTTTCCCGGTAATCCGTATTTGGG (site ACTAGTGCTCC)”, the “recombinant UMI read abundance (log10)” value came out at 0.376.

As for “ACTAGTGCATGGACCGGTTTTCCCGGTAATCCGTATTTGGG (site ACTAGTGCTGC)”, the “recombinant UMI read abundance (log10)” value was 0.

With “ACTAGTGCATGGACCGGTTTTCCCGGTAATCCGTATTTGGG (site ACTAGTGCTTC)”, the “recombinant UMI read abundance (log10)” value was found to be 0.021.

For the sequence “ACTAGTGCATGGACCGGTTTTCCCGGTAATCCGTATTTGTT (site ACTAGTGCTAA)”, the “recombinant UMI read abundance (log10)” value stood at 1.35.

On to “ACTAGTGCATGGACCGGTTTTCCCGGTAATCCGTATTTGTT (site ACTAGTGCTAC)”, for which the “recombinant UMI read abundance (log10)” value was found to be 0.00478.

For “ACTAGTGCATGGACCGGTTTTCCCGGTAATCCGTATTTGTT (site ACTAGTGCTAG)”, the “recombinant UMI read abundance (log10)” value is 1.16.

As for “ACTAGTGCATGGACCGGTTTTCCCGGTAATCCGTATTTGTT (site ACTAGTGCTAT)”, the “recombinant UMI read abundance (log10)” value stood at 0.242.

On to “ACTATAACATGGACCGGTTTTCCCGGTAATCCGTATTTGAG (site ACTAAAACTCT)”, for which the “recombinant UMI read abundance (log10)” value stood at 0.00383.

Regarding “ACTATAACATGGACCGGTTTTCCCGGTAATCCGTATTTGAG (site ACTACAACTCT)”, the “recombinant UMI read abundance (log10)” value was 0.348.

Turning to “ACTATAACATGGACCGGTTTTCCCGGTAATCCGTATTTGAG (site ACTAGAACTCT)”, the “recombinant UMI read abundance (log10)” value stood at 0.395.

As to “ACTATAACATGGACCGGTTTTCCCGGTAATCCGTATTTGAG (site ACTATAACTCT)”, the “recombinant UMI read abundance (log10)” value is 1.72.

In the case of “ACTATACCATGGACCGGTTTTCCCGGTAATCCGTATTTGTA (site ACTATACCTTA)”, the “recombinant UMI read abundance (log10)” value turned out to be 0.0158.

Regarding “ACTATTGCATGGACCGGTTTTCCCGGTAATCCGTATTTGGT (site ACTAATGCTAC)”, the “recombinant UMI read abundance (log10)” value was 0.108.

Consider “ACTATTGCATGGACCGGTTTTCCCGGTAATCCGTATTTGGT (site ACTACTGCTAC)”, for which the “recombinant UMI read abundance (log10)” value is 0.0131.

“ACTATTGCATGGACCGGTTTTCCCGGTAATCCGTATTTGGT (site ACTAGTGCTAC)”: the “recombinant UMI read abundance (log10)” value came out at 0.023.

In the case of “ACTATTGCATGGACCGGTTTTCCCGGTAATCCGTATTTGGT (site ACTATTGCTAC)”, the “recombinant UMI read abundance (log10)” value was 1.91.

For “ACTCAAGCATGGACCGGTTTTCCCGGTAATCCGTATTTGCA (site ACTCAAGCTTG)”, the “recombinant UMI read abundance (log10)” value amounted to 2.26.

Take “ACTCAATCATGGACCGGTTTTCCCGGTAATCCGTATTTGAG (site ACTCAATCTCT)”: the “recombinant UMI read abundance (log10)” value is 1.69.
